Results published in ChEMBL document CHEMBL2346657, “Synthesis of novel 2-amino-4-(5'-substituted 2'-phenyl-1H-indol-3'-yl)-6-aryl-4H-pyran-3-carbonitrile derivatives as antimicrobial and antioxidant agents” (2013).
Activity calls are given as the source filed them. Unless noted, the rule behind the calls is not given here.

System: Escherichia coli
Test: Antimicrobial activity against Escherichia coli MTCC 723 at 500 ug/ml after 24 hrs by cup plate method
Format: functional
Conditions: MTCC 723, 24 h, read-out: IZ
`Cc1ccc(C2=CC(c3c(-c4ccccc4)[nH]c4ccc(Cl)cc34)c3c(nc4oc(=O)c(C#N)c(N)c4c3N)O2)cc1` (stereo unspecified) showed a zone of inhibition at 500 µg/mL of 12 mm.

System: Pseudomonas aeruginosa
Test: Antimicrobial activity against Pseudomonas aeruginosa MTCC 1688 at 750 ug/ml after 24 hrs by cup plate method
Format: functional
Conditions: MTCC 1688, 24 h, read-out: IZ
`Cc1ccc(C2=CC(c3c(-c4ccccc4)[nH]c4ccc(Cl)cc34)c3c(nc4oc(=O)c(C#N)c(N)c4c3N)O2)cc1` (stereo unspecified) gave a zone of inhibition at 750 µg/mL of 2 mm.

System: Escherichia coli
Test: Antimicrobial activity against Escherichia coli MTCC 723 at 1000 ug/ml after 24 hrs by cup plate method
Format: functional
Conditions: MTCC 723, 24 h, read-out: IZ
Work on `Cc1ccc(C2=CC(c3c(-c4ccccc4)[nH]c4ccc(Cl)cc34)c3c(nc4oc(=O)c(C#N)c(N)c4c3N)O2)cc1` (stereo unspecified) yielded a zone of inhibition at 1000 µg/mL of 9 mm.

System: Aspergillus flavus
Test: Antimicrobial activity against Aspergillus flavus MTCC 1973 at 1000 ug/ml after 72 hrs by cup plate method
Format: functional
Conditions: MTCC 1973, 72 h, read-out: IZ
With `Cc1ccc(C2=CC(c3c(-c4ccccc4)[nH]c4ccc(Cl)cc34)c3c(nc4oc(=O)c(C#N)c(N)c4c3N)O2)cc1` (stereo unspecified) the zone of inhibition at 1000 µg/mL was 3 mm.

System: Aspergillus flavus
Test: Antimicrobial activity against Aspergillus flavus MTCC 1973 at 500 ug/ml after 72 hrs by cup plate method
Format: functional
Conditions: MTCC 1973, 72 h, read-out: IZ
Compound `Cc1ccc(C2=CC(c3c(-c4ccccc4)[nH]c4ccc(Cl)cc34)c3c(nc4oc(=O)c(C#N)c(N)c4c3N)O2)cc1` (stereo unspecified) has a zone of inhibition at 500 µg/mL of 6 mm.

System: Aspergillus niger
Test: Antimicrobial activity against Aspergillus niger MTCC 281 at 500 ug/ml after 72 hrs by cup plate method
Format: functional
Conditions: MTCC 281, 72 h, read-out: IZ
`Cc1ccc(C2=CC(c3c(-c4ccccc4)[nH]c4ccc(Cl)cc34)c3c(nc4oc(=O)c(C#N)c(N)c4c3N)O2)cc1` (stereo unspecified) showed a zone of inhibition at 500 µg/mL of 0 mm.

System: Radical scavenging activity
Test: Antioxidant activity assessed as DPPH radical scavenging activity at 75 ug/ml
Format: functional
Conditions: not given
For `Cc1ccc(C2=CC(c3c(-c4ccccc4)[nH]c4ccc(Cl)cc34)c3c(nc4oc(=O)c(C#N)c(N)c4c3N)O2)cc1` (stereo unspecified), the Activity was “Active”.

System: Aspergillus oryzae
Test: Antimicrobial activity against Aspergillus oryzae MTCC 3567 at 750 ug/ml after 72 hrs by cup plate method
Format: functional
Conditions: MTCC 3567, 72 h, read-out: IZ
For `Cc1ccc(C2=CC(c3c(-c4ccccc4)[nH]c4ccc(Cl)cc34)c3c(nc4oc(=O)c(C#N)c(N)c4c3N)O2)cc1` (stereo unspecified), the zone of inhibition at 750 µg/mL was 10 mm.

System: Aspergillus niger
Test: Antimicrobial activity against Aspergillus niger MTCC 281 at 750 ug/ml after 72 hrs by cup plate method
Format: functional
Conditions: MTCC 281, 72 h, read-out: IZ
Work on `Cc1ccc(C2=CC(c3c(-c4ccccc4)[nH]c4ccc(Cl)cc34)c3c(nc4oc(=O)c(C#N)c(N)c4c3N)O2)cc1` (stereo unspecified) yielded a zone of inhibition at 750 µg/mL of 0 mm.

System: Klebsiella pneumoniae
Test: Antimicrobial activity against Klebsiella pneumoniae NCTC 13368 at 750 ug/ml after 24 hrs by cup plate method
Format: functional
Conditions: NCTC 13368, 24 h, read-out: IZ
`Cc1ccc(C2=CC(c3c(-c4ccccc4)[nH]c4ccc(Cl)cc34)c3c(nc4oc(=O)c(C#N)c(N)c4c3N)O2)cc1` (stereo unspecified) showed a zone of inhibition at 750 µg/mL of 8 mm.

System: Aspergillus terreus
Test: Antimicrobial activity against Aspergillus terreus MTCC 1782 at 750 ug/ml after 72 hrs by cup plate method
Format: functional
Conditions: MTCC 1782, 72 h, read-out: IZ
`Cc1ccc(C2=CC(c3c(-c4ccccc4)[nH]c4ccc(Cl)cc34)c3c(nc4oc(=O)c(C#N)c(N)c4c3N)O2)cc1` (stereo unspecified) showed a zone of inhibition at 750 µg/mL of 3 mm.

System: Aspergillus oryzae
Test: Antimicrobial activity against Aspergillus oryzae MTCC 3567 at 500 ug/ml after 72 hrs by cup plate method
Format: functional
Conditions: MTCC 3567, 72 h, read-out: IZ
`Cc1ccc(C2=CC(c3c(-c4ccccc4)[nH]c4ccc(Cl)cc34)c3c(nc4oc(=O)c(C#N)c(N)c4c3N)O2)cc1` (stereo unspecified) gave a zone of inhibition at 500 µg/mL of 10 mm.

System: Staphylococcus aureus
Test: Antimicrobial activity against Staphylococcus aureus ATCC 29513 at 1000 ug/ml after 24 hrs by cup plate method
Format: functional
Conditions: ATCC 29513, 24 h, read-out: IZ
`Cc1ccc(C2=CC(c3c(-c4ccccc4)[nH]c4ccc(Cl)cc34)c3c(nc4oc(=O)c(C#N)c(N)c4c3N)O2)cc1` (stereo unspecified) showed a zone of inhibition at 1000 µg/mL of 3 mm.

System: Escherichia coli
Test: Antimicrobial activity against Escherichia coli MTCC 723 at 750 ug/ml after 24 hrs by cup plate method
Format: functional
Conditions: MTCC 723, 24 h, read-out: IZ
`Cc1ccc(C2=CC(c3c(-c4ccccc4)[nH]c4ccc(Cl)cc34)c3c(nc4oc(=O)c(C#N)c(N)c4c3N)O2)cc1` (stereo unspecified) showed a zone of inhibition at 750 µg/mL of 10 mm.

System: Aspergillus oryzae
Test: Antimicrobial activity against Aspergillus oryzae MTCC 3567 at 1000 ug/ml after 72 hrs by cup plate method
Format: functional
Conditions: MTCC 3567, 72 h, read-out: IZ
Compound `Cc1ccc(C2=CC(c3c(-c4ccccc4)[nH]c4ccc(Cl)cc34)c3c(nc4oc(=O)c(C#N)c(N)c4c3N)O2)cc1` (stereo unspecified) has a zone of inhibition at 1000 µg/mL of 10 mm.

System: Pseudomonas aeruginosa
Test: Antimicrobial activity against Pseudomonas aeruginosa MTCC 1688 at 500 ug/ml after 24 hrs by cup plate method
Format: functional
Conditions: MTCC 1688, 24 h, read-out: IZ
With `Cc1ccc(C2=CC(c3c(-c4ccccc4)[nH]c4ccc(Cl)cc34)c3c(nc4oc(=O)c(C#N)c(N)c4c3N)O2)cc1` (stereo unspecified) the zone of inhibition at 500 µg/mL was 2 mm.

System: not listed separately
Test: Antioxidant activity assessed as metal chelating activity by measuring inhibition of ferrozine-Fe2+ complex formation at 25 to 100 ug/ml
Format: functional
Conditions: not given
In the case of `Cc1ccc(C2=CC(c3c(-c4ccccc4)[nH]c4ccc(Cl)cc34)c3c(nc4oc(=O)c(C#N)c(N)c4c3N)O2)cc1` (stereo unspecified), the Activity is reported as “Active”.

System: Staphylococcus aureus
Test: Antimicrobial activity against Staphylococcus aureus ATCC 29513 at 500 ug/ml after 24 hrs by cup plate method
Format: functional
Conditions: ATCC 29513, 24 h, read-out: IZ
For `Cc1ccc(C2=CC(c3c(-c4ccccc4)[nH]c4ccc(Cl)cc34)c3c(nc4oc(=O)c(C#N)c(N)c4c3N)O2)cc1` (stereo unspecified), the zone of inhibition at 500 µg/mL was 5 mm.

System: Aspergillus niger
Test: Antimicrobial activity against Aspergillus niger MTCC 281 at 1000 ug/ml after 72 hrs by cup plate method
Format: functional
Conditions: MTCC 281, 72 h, read-out: IZ
In the case of `Cc1ccc(C2=CC(c3c(-c4ccccc4)[nH]c4ccc(Cl)cc34)c3c(nc4oc(=O)c(C#N)c(N)c4c3N)O2)cc1` (stereo unspecified), the zone of inhibition at 1000 µg/mL is reported as 3 mm.

System: Klebsiella pneumoniae
Test: Antimicrobial activity against Klebsiella pneumoniae NCTC 13368 at 1000 ug/ml after 24 hrs by cup plate method
Format: functional
Conditions: NCTC 13368, 24 h, read-out: IZ
`Cc1ccc(C2=CC(c3c(-c4ccccc4)[nH]c4ccc(Cl)cc34)c3c(nc4oc(=O)c(C#N)c(N)c4c3N)O2)cc1` (stereo unspecified) gave a zone of inhibition at 1000 µg/mL of 8 mm.

System: Aspergillus terreus
Test: Antimicrobial activity against Aspergillus terreus MTCC 1782 at 500 ug/ml after 72 hrs by cup plate method
Format: functional
Conditions: MTCC 1782, 72 h, read-out: IZ
In the case of `Cc1ccc(C2=CC(c3c(-c4ccccc4)[nH]c4ccc(Cl)cc34)c3c(nc4oc(=O)c(C#N)c(N)c4c3N)O2)cc1` (stereo unspecified), the zone of inhibition at 500 µg/mL is reported as 3 mm.

System: Klebsiella pneumoniae
Test: Antimicrobial activity against Klebsiella pneumoniae NCTC 13368 at 500 ug/ml after 24 hrs by cup plate method
Format: functional
Conditions: NCTC 13368, 24 h, read-out: IZ
Work on `Cc1ccc(C2=CC(c3c(-c4ccccc4)[nH]c4ccc(Cl)cc34)c3c(nc4oc(=O)c(C#N)c(N)c4c3N)O2)cc1` (stereo unspecified) yielded a zone of inhibition at 500 µg/mL of 8 mm.

System: Staphylococcus aureus
Test: Antimicrobial activity against Staphylococcus aureus ATCC 29513 at 750 ug/ml after 24 hrs by cup plate method
Format: functional
Conditions: ATCC 29513, 24 h, read-out: IZ
In the case of `Cc1ccc(C2=CC(c3c(-c4ccccc4)[nH]c4ccc(Cl)cc34)c3c(nc4oc(=O)c(C#N)c(N)c4c3N)O2)cc1` (stereo unspecified), the zone of inhibition at 750 µg/mL is reported as 3 mm.

System: Aspergillus terreus
Test: Antimicrobial activity against Aspergillus terreus MTCC 1782 at 1000 ug/ml after 72 hrs by cup plate method
Format: functional
Conditions: MTCC 1782, 72 h, read-out: IZ
Work on `Cc1ccc(C2=CC(c3c(-c4ccccc4)[nH]c4ccc(Cl)cc34)c3c(nc4oc(=O)c(C#N)c(N)c4c3N)O2)cc1` (stereo unspecified) yielded a zone of inhibition at 1000 µg/mL of 3 mm.

System: Pseudomonas aeruginosa
Test: Antimicrobial activity against Pseudomonas aeruginosa MTCC 1688 at 1000 ug/ml after 24 hrs by cup plate method
Format: functional
Conditions: MTCC 1688, 24 h, read-out: IZ
In the case of `Cc1ccc(C2=CC(c3c(-c4ccccc4)[nH]c4ccc(Cl)cc34)c3c(nc4oc(=O)c(C#N)c(N)c4c3N)O2)cc1` (stereo unspecified), the zone of inhibition at 1000 µg/mL is reported as 2 mm.

System: Aspergillus flavus
Test: Antimicrobial activity against Aspergillus flavus MTCC 1973 at 750 ug/ml after 72 hrs by cup plate method
Format: functional
Conditions: MTCC 1973, 72 h, read-out: IZ
In the case of `Cc1ccc(C2=CC(c3c(-c4ccccc4)[nH]c4ccc(Cl)cc34)c3c(nc4oc(=O)c(C#N)c(N)c4c3N)O2)cc1` (stereo unspecified), the zone of inhibition at 750 µg/mL is reported as 5 mm.
